This passage reports Activity results from ChEMBL document CHEMBL2074294, “Differential effects of microsomal enzyme-inducing chemicals on the hepatic expression of rat organic anion transporters, OATP1 and OATP2” (Hepatology, 2001).

The target of this data set is T1, Solute carrier organic anion transporter family member 1A4 (Rattus norvegicus, UniProt O35913).
T1 sequence (O35913 whole entry): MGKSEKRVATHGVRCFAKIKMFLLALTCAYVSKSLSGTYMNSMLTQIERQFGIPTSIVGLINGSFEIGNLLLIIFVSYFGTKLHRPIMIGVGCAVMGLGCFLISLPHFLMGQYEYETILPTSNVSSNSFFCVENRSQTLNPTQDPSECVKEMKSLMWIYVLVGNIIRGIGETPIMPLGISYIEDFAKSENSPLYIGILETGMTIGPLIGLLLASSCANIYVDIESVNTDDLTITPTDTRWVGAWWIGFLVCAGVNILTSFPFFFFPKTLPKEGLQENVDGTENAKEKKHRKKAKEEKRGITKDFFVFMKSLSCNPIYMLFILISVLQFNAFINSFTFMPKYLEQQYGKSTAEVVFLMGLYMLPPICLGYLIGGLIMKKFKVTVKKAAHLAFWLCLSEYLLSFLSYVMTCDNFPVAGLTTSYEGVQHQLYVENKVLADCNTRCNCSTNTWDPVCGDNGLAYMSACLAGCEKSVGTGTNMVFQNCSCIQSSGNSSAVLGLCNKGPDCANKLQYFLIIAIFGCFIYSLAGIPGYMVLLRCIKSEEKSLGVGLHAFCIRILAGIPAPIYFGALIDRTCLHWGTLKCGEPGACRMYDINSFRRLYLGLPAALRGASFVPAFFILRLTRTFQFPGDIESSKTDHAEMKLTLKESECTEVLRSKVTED
Briefly: TP_TRANSPORTER: Western blot. The format is functional. In general terms: Immunoblotting shows a protein as a band on a membrane.

In the case of `Cc1ccc2cc3c(ccc4ccccc43)c3c2c1CC3` [3-METHYLCHOLANTHRENE], the Activity entry is “inducer [Decrease]”.
